{"source": "patent US11149014B2", "about": "“Method for treating pain or associated condition or symptom” (priority 2014, dated 2021)", "key": {"[1]": {"experiment": "Weight loss Study 1: body weight of DBA/1 male mice injected Type II collagen for CIA", "format": "in vivo", "conditions": "5 mg/Kg intra-peritoneal for 16 days from day 18; 34 days", "experimental": "DBA/1 male mice (6 weeks old, 20 gram, 15 mice/group) were injected Type II collagen for CIA. On day 18, the mice were injected (intra-peritoneal) with the following doses, for 16 days:\nVehicle: ethanol: chremophor: saline (1:1:18)\nMethrotrexate (MTX): 0.5 mg/Kg.\nIn addition, a control group (wherein no dose was given) was monitored for comparison. The changes in body weight (in grams) was measured daily for a period of 34 days from injection. FIG. 4 (days 18-34) and FIG. 5 (overall change from day 1 to 34), show the changes in body weight of mice over a period of 34 days from injection."}, "[2]": {"tested_on": "Sabra mice", "experiment": "Zymosan-induced hind paw pain, Von Frey monofiber instrument", "format": "in vivo", "conditions": "for pain reduction: 2, 6, 24 h", "experimental": "(§1) Activity of HU-436 given orally were assayed in Sabra mice. Zymosan injected to mice left hind paw, induced inflammation, TNF (tumor necrosis factor) in the serum as well as pain. During 24 h, the inflammatory paw swelling response was assayed by caliper, whereas the pain in the hind paw, was determined by Von Frey monofiber instrument.\n(§2) Sabra female, mice 6-7 weeks old, were employed. Zymosan 0.6 mgr in 40 micro-liters was injected into the left hind paw. Immediately thereafter 20 30, 50 or 100 mg/kg HU436 dissolved in olive oil, in 200 μl—was given orally. Two, six and twenty-four hours thereafter, the injected left hind paw of the mice (total 5-8 mice/treatment), were examined both for swelling (Inflammation) and pain (Von Frey). The levels of TNFα in the sera of Sabra mice were determined by Elisa, 24 hrs after HU-436 application.\nPain, was assayed by employing Von-Frey monofiber instrument. The higher the log value measured, the more force (g) one has to apply to cause pain=higher analgesia is being expressed=less pain."}, "[3]": {"tested_on": "TNFα", "experiment": "TNFα levels in sera of zymosan-injected Sabra mice (Elisa)", "format": "in vivo", "conditions": "24 hrs after application", "experimental": "as §1, §2"}, "[4]": {"tested_on": "TNF", "experiment": "TNF level in serum of C57BL mice injected with LPS", "format": "in vivo", "conditions": "30 mg/Kg injected together with LPS; 90 min after injection", "experimental": "Three doses of HU-436 (10 mg/Kg, 20 mg/Kg and 30 mg/Kg) were each injected to three C57BL mice together with LPS. Ninety min fallowing the injections, the mice were bled and the TNF levels in the serum were determined."}, "[5]": {"experiment": "Weight loss Study 2: weight change of normal Sabra mice", "format": "in vivo", "conditions": "5 mg/Kg intra-peritoneal; 15 and 24 days", "experimental": "Normal Sabra (mice 9-10 weeks old, about 32 gram, 7 mice/group) were injected (intra-peritoneal) with two doses of HU-436 (5 mg/Kg and 10 mg/Kg). The change in weight of mice was measured daily for 15 (FIG. 6) and 24 days (FIG. 7) from injection. In addition, a control group (wherein no dose was given) was monitored for comparison."}, "[6]": {"experiment": "Weight loss Study 3: weight gain and food consumption of C57BL/6 mice", "format": "in vivo", "conditions": "for food consumption: after 1-3 weeks; for reduction in weight gain compared to the control group: three weeks", "experimental": "C57BL/6 mice (8-9 weeks old, 16 gram, 5 mice/group) were injected (intra-peritoneal) with two doses of HU-436 (5 mg/Kg and 10 mg/Kg). The change in weight of mice was measured weekly for three weeks (FIGS. 8 and 9) from injection. In addition, a control group (wherein no dose was given) was monitored for comparison."}, "[7]": {"tested_on": "TNF-α", "experiment": "TNF-α in supernatants of TG macrophages treated with LPS (ELISA)", "format": "cell-based, mice", "conditions": "Mus musculus, Macrophage, 40 μg/ml, read-out: inhibition in TNF production", "experimental": "Peritoneal cells were harvested from C57BL/6 female mice 4 days after intra-peritoneal injection of 1.5 mL of 3% thioglycollate medium (Difco). The cells (TG macrophages) were washed with phosphate-buffered saline, re-suspended in Dulbecco's modified Eagle medium (DMEM) supplemented with 5% fetal calf serum (FCS), and plated (1.2×10^5) in 96-microwell flat-bottom plates (Nunc, Roskide, Denmark). Following 2-3 h incubation at 37° C., the non-adherent cells were removed by intensive rinsing. About 95% of the adherent cells were macrophages. These cells were applied for studying TNF production in-vitro.\nTNF-α in the supernatants of TG macrophages treated with HU-436 (doses of […]) and LPS was determined by ELISA (R&D) with Ab pairs from Biosource (Camarillo, Calif.). Procedures were carried out following the manufacturer's instructions."}, "[8]": {"tested_on": "C57BL", "experiment": "Preliminary toxicological studies in C57BL", "format": "in vivo, mice"}, "[9]": {"tested_on": "Female sabra mice", "experiment": "Forced swimming test (FST) for depressive effect", "format": "in vivo", "conditions": "for moment/kicking per minute score, Mean: mean of last 4 min", "experimental": "To find out whether HU436 has depressive effects on mice behavior—a forced swimming test (FST) was adopted.\nFemale sabra mice 6-8 weeks old were employed. Measurement of locomotor activity in mice movements were counted for 6 minutes.\nForced Swimming test (FST): The forced swimming test employed was essential similar to that described in ((Pettit-Demoulier et al, (2005) Psychopharmacology 177:245-255;)\nMice were dropped individually into a glass aquarium (height […], diameter 10 cm) containing 10 cm of water and their activity was monitored for 6 minutes. Of the total 6 minutes only the last 4 minutes was recorded—the first 2 minutes were considered as time for habitation.\nThe mice were treated either with 5 mg/kg or 10 mg/kg of HU436 (ip). Mice were scored at 10 minutes 90 minutes or 180 minutes after administration. In addition to mice treated with vehicle as control, 1 mice was injected ip with 5 mg/kg CBD and scored 10 minutes later. The movements/kicking of the mice were counted and the data are presented in the attached Table 1."}}, "note": "Values joined by “and” are separate entries in the source; they are usually repeats but may differ in a detail not shown here. Equal entries are not always repeated. Structures can show the parent of a compound that is named as a salt."}
{"smiles": "C=C(C)C1CCC(C)=CC1c1c(OC)cc(CCCCC)cc1OC(=O)CCN1CCOCC1", "note": "[HU-436, Maleate Salt of 3-methoxy-2-((6R)-3-methyl-6-(prop-l-en-2-yl)cyclohex-2-enyl)-5-pentylphenyl 3-morpholinopropanoate]", "values": [{"measurement": "reduction of body weight (weight gain of control group = 100% gain)", "setting": "[1]", "value": "up to 61%"}, {"measurement": "pain reduction", "setting": "[2]; 20 mg/kg given orally", "value": "marked pain reduction"}, {"measurement": "pain reduction", "setting": "[2]; 30 mg/kg given orally", "value": "marked pain reduction"}, {"measurement": "pain reduction", "setting": "[2]; 50 mg/kg given orally", "value": "marked pain reduction"}, {"measurement": "pain reduction compared to Tremadol (5 mg/kg intra-peritoneally)", "setting": "[2]; 50 mg/kg, after 24 hr", "value": "more potent after 24 hr than Tremadol"}, {"measurement": "pain reduction", "setting": "[2]; 100 mg/kg given orally", "value": "marked pain reduction"}, {"measurement": "pain reduction compared to Aspirin", "setting": "[2]; HU-436 30 or 50 mg/kg vs Aspirin 50 (and 100) mg/kg, 24 hr", "value": "the most potent in reducing pain for 24 hr"}, {"measurement": "long lasting pain reduction compared to Cannabidiol, Aspirin", "setting": "[2]; conclusion", "value": "more effective than Cannabidiol, Aspirin in reducing long lasting pain"}, {"measurement": "reduction of TNFα levels in the sera", "setting": "[3]", "value": "up to 20%"}, {"measurement": "inhibition in TNF level in the serum", "setting": "[4]", "value": 46, "unit": "%"}, {"measurement": "changes in weight gain", "setting": "[5]", "value": "significantly decreased the changes in weight gain"}, {"measurement": "food consumption", "setting": "[6]; 5 mg/Kg intra-peritoneal", "value": "reduction in food consumption"}, {"measurement": "reduction in weight gain compared to the control group", "setting": "[6]; 5 mg/Kg intra-peritoneal", "value": "about 50%"}, {"measurement": "food consumption", "setting": "[6]; 10 mg/Kg intra-peritoneal", "value": "reduction in food consumption"}, {"measurement": "reduction in weight gain compared to the control group", "setting": "[6]; 10 mg/Kg intra-peritoneal", "value": "about 50%"}, {"measurement": "inhibition at 40 µg/mL", "setting": "[7]", "value": "> 60", "unit": "%"}, {"measurement": "toxicity", "setting": "[8]; 50 mg/Kg", "value": "non-toxic"}, {"measurement": "toxicity", "setting": "[8]; 100 mg/Kg", "value": "non-toxic"}, {"measurement": "moment/kicking per minute score, Mean", "setting": "[9]; 5 mg/kg, 10 min after ip", "value": 81, "unit": "per minute"}, {"measurement": "moment/kicking per minute score", "setting": "[9]; 5 mg/kg, 10 min after ip, minute 3 in tank", "value": 84, "unit": "per minute"}, {"measurement": "moment/kicking per minute score", "setting": "[9]; 5 mg/kg, 10 min after ip, minute 4 in tank", "value": 96, "unit": "per minute"}, {"measurement": "moment/kicking per minute score", "setting": "[9]; 5 mg/kg, 10 min after ip, minute 5 in tank", "value": 76, "unit": "per minute"}, {"measurement": "moment/kicking per minute score", "setting": "[9]; 5 mg/kg, 10 min after ip, minute 6 in tank", "value": 68, "unit": "per minute"}, {"measurement": "moment/kicking per minute score, Mean", "setting": "[9]; 5 mg/kg, 90 min after ip", "value": 75, "unit": "per minute"}, {"measurement": "moment/kicking per minute score", "setting": "[9]; 5 mg/kg, 90 min after ip, minute 3 in tank", "value": 70, "unit": "per minute"}, {"measurement": "moment/kicking per minute score", "setting": "[9]; 5 mg/kg, 90 min after ip, minute 4 in tank", "value": 85, "unit": "per minute"}, {"measurement": "moment/kicking per minute score", "setting": "[9]; 5 mg/kg, 90 min after ip, minute 5 in tank", "value": 72, "unit": "per minute"}, {"measurement": "moment/kicking per minute score", "setting": "[9]; 5 mg/kg, 90 min after ip, minute 6 in tank", "value": 73, "unit": "per minute"}, {"measurement": "moment/kicking per minute score, Mean", "setting": "[9]; 10 mg/kg, 10 min after ip", "value": 75, "unit": "per minute"}, {"measurement": "moment/kicking per minute score", "setting": "[9]; 10 mg/kg, 10 min after ip, minute 3 in tank", "value": 80, "unit": "per minute"}, {"measurement": "moment/kicking per minute score", "setting": "[9]; 10 mg/kg, 10 min after ip, minute 4 in tank", "value": 84, "unit": "per minute"}, {"measurement": "moment/kicking per minute score", "setting": "[9]; 10 mg/kg, 10 min after ip, minute 5 in tank", "value": 64, "unit": "per minute"}, {"measurement": "moment/kicking per minute score", "setting": "[9]; 10 mg/kg, 10 min after ip, minute 6 in tank", "value": 72, "unit": "per minute"}, {"measurement": "moment/kicking per minute score, Mean", "setting": "[9]; 10 mg/kg, 180 min after ip", "value": 77, "unit": "per minute"}, {"measurement": "moment/kicking per minute score", "setting": "[9]; 10 mg/kg, 180 min after ip, minute 3 in tank", "value": 76, "unit": "per minute"}, {"measurement": "moment/kicking per minute score", "setting": "[9]; 10 mg/kg, 180 min after ip, minute 4 in tank", "value": 52, "unit": "per minute"}, {"measurement": "moment/kicking per minute score", "setting": "[9]; 10 mg/kg, 180 min after ip, minute 5 in tank", "value": 90, "unit": "per minute"}, {"measurement": "moment/kicking per minute score", "setting": "[9]; 10 mg/kg, 180 min after ip, minute 6 in tank", "value": 90, "unit": "per minute"}, {"measurement": "moment/kicking per minute score, Mean", "setting": "[9]; 10 mg/kg, time after ip not given", "value": "81 per minute and 83 per minute"}, {"measurement": "moment/kicking per minute score", "setting": "[9]; 10 mg/kg, time after ip not given, minute 3 in tank", "value": "79 per minute and 74 per minute"}, {"measurement": "moment/kicking per minute score", "setting": "[9]; 10 mg/kg, time after ip not given, minute 4 in tank", "value": "80 per minute and 64 per minute"}, {"measurement": "moment/kicking per minute score", "setting": "[9]; 10 mg/kg, time after ip not given, minute 5 in tank", "value": "89 per minute and 112 per minute"}, {"measurement": "moment/kicking per minute score", "setting": "[9]; 10 mg/kg, time after ip not given, minute 6 in tank", "value": "76 per minute and 83 per minute"}, {"measurement": "depressive activity", "setting": "[9]; 5 or 10 mg/kg ip", "value": "did not cause depressive activity"}]}
